According to patent US20090326037A1 (priority 2005, published 2009):

System: influenza A/Singapore/1/57 virus
Experiment: microbe, parasite or virus in culture
Format: cell-based
Details: added 2 hours after infection

1-methyl-2-(4-methylphenylsulfomethyl-3-carbethoxy-4-dimethylaminomethyl-5-oxy-6-bromindol
Percent of inhibition of OD 490 (A or B 0.3 μg/ml + Zanamivir 0.3 μg): 10%
Percent of inhibition of OD 490 (A or B 0.3 μg/ml + Zanamivir 1 μg): 15%
Percent of inhibition of OD 490 (A or B 0.3 μg/ml + Zanamivir 3.3 μg): 21%
Percent of inhibition of OD 490 (A or B 0.3 μg/ml + Zanamivir 10 μg): 30%
Percent of inhibition of OD 490 (A or B 0.3 μg/ml + Zanamivir 33 μg): 40%
Percent of inhibition of OD 490 (A or B 0.3 μg/ml alone (Zanamivir 0)): no
Percent of inhibition of OD 490 (A or B 1 μg/ml + Zanamivir 0.3 μg): 21%
Percent of inhibition of OD 490 (A or B 1 μg/ml + Zanamivir 1 μg): 26%
Percent of inhibition of OD 490 (A or B 1 μg/ml + Zanamivir 3.3 μg): 30%
Percent of inhibition of OD 490 (A or B 1 μg/ml + Zanamivir 10 μg): 85%
Percent of inhibition of OD 490 (A or B 1 μg/ml + Zanamivir 33 μg): 83%
Percent of inhibition of OD 490 (A or B 1 μg/ml alone (Zanamivir 0)): no
Percent of inhibition of OD 490 (A or B 3 μg/ml + Zanamivir 0.3 μg): 40%
Percent of inhibition of OD 490 (A or B 3 μg/ml + Zanamivir 1 μg): 45%
Percent of inhibition of OD 490 (A or B 3 μg/ml + Zanamivir 3.3 μg): 80%
Percent of inhibition of OD 490 (A or B 3 μg/ml + Zanamivir 10 μg): 90%
Percent of inhibition of OD 490 (A or B 3 μg/ml + Zanamivir 33 μg): 87%
Percent of inhibition of OD 490 (A or B 3 μg/ml alone (Zanamivir 0)): no
Percent of inhibition of OD 490 (A or B 5 μg/ml + Zanamivir 0.3 μg): 52%
Percent of inhibition of OD 490 (A or B 5 μg/ml + Zanamivir 1 μg): 80%
Percent of inhibition of OD 490 (A or B 5 μg/ml + Zanamivir 3.3 μg): 75%
Percent of inhibition of OD 490 (A or B 5 μg/ml + Zanamivir 10 μg): 96%
Percent of inhibition of OD 490 (A or B 5 μg/ml + Zanamivir 33 μg): 95%
Percent of inhibition of OD 490 (A or B 5 μg/ml alone (Zanamivir 0)): no
Percent of inhibition of OD 490 (A or B 10 μg/ml + Zanamivir 0.3 μg): 50%
Percent of inhibition of OD 490 (A or B 10 μg/ml + Zanamivir 1 μg): 75%
Percent of inhibition of OD 490 (A or B 10 μg/ml + Zanamivir 3.3 μg): 90%
Percent of inhibition of OD 490 (A or B 10 μg/ml + Zanamivir 10 μg): 100, 100%
Percent of inhibition of OD 490 (A or B 10 μg/ml + Zanamivir 33 μg): 100, 100%
Percent of inhibition of OD 490 (A or B 10 μg/ml alone (Zanamivir 0)): 10%
